Counter-ions that a name gives are not always drawn.
Key:
TBK1 = TBK1 (Homo sapiens (Human), UniProt Q9UHD2); test: TBK Biochemical Assay
Outline: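 Enzyme and substrate with compound (10-point 1:4 series, top 30 uM final, 1% DMSO) incubated 90 min at 25 °C, then stopped; substrate/product separated and read by LabChip mobility-shift, staurosporine 10 uM final as full-inhibition control.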

IKKe = IKKe (Homo sapiens (Human), UniProt Q14164); test: IKKe Biochemical Assay
Outline: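 Human IKKε activity was measured with compounds in a 10-point 1:4 dilution series, top concentration 30 uM final, in 1% DMSO final; 10 uM staurosporine served as the control. Enzyme and substrate were incubated 90 min at 25° C, then stopped, and substrate/product peaks were separated by microfluidic mobility-shift on a LabChip EZ Reader II.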

Sequence of TBK1 (Q9UHD2 whole entry, species assumed): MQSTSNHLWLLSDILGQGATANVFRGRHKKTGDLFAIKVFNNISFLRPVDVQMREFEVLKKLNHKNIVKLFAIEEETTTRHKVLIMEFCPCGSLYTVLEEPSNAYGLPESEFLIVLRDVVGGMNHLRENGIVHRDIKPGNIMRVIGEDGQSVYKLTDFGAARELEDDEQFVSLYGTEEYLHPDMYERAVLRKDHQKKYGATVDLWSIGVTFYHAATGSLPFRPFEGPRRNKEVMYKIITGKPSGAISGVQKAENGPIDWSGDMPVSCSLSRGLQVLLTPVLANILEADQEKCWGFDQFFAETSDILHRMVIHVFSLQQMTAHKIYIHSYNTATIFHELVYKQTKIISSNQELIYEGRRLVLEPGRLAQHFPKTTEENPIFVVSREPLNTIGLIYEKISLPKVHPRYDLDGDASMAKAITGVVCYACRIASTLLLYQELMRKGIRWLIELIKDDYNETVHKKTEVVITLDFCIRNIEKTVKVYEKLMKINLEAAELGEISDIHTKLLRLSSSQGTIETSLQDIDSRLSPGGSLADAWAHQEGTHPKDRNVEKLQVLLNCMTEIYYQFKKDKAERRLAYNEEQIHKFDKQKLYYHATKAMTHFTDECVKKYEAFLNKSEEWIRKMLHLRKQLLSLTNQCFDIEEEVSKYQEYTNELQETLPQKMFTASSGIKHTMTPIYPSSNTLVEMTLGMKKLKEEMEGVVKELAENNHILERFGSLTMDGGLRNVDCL
Sequence of IKKe (Q14164 whole entry, species assumed): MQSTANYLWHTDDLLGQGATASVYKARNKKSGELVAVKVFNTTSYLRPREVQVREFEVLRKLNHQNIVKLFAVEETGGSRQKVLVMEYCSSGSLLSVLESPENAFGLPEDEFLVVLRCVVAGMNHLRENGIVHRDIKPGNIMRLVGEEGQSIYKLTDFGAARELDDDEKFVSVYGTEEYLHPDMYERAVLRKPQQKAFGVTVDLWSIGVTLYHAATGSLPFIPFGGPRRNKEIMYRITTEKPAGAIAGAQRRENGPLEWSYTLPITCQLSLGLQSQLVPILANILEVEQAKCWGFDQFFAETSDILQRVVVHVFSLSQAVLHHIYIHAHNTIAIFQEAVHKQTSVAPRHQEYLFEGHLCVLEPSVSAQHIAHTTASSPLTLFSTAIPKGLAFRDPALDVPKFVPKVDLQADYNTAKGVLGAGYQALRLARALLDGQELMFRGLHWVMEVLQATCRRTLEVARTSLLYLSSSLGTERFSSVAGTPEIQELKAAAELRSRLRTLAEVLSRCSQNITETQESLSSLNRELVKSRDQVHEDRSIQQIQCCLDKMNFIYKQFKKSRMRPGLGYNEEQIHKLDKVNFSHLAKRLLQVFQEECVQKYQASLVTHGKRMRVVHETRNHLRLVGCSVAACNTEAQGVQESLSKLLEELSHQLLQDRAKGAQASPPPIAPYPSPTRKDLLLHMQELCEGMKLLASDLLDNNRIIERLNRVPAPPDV

Row | SMILES | IC50 (TBK1) | IC50 (IKKe)
1 | COc1nc(Nc2cc(-c3ccc(OC4CCN(C(=O)[C@H](C)O)CC4(F)F)c(C#N)c3)ncn2)ccc1N1CCN(C2COC2)C[C@@H]1C (stereo partly drawn) [Example 72, 2-([3,3-difluoro-1-[(2S)-2-hydroxypropanoyl]piperidin-4-yl]oxy)-5-[6-([6-methoxy-5-[(2S)-2-methyl-4-(oxetan-3-yl)piperazin-1-yl]pyridin-2-yl]amino)pyrimidin-4-yl]benzonitrile] | < 100 nM | < 100 nM
2 | COc1nc(Nc2cc(-c3ccc(OC4CCNCC4(F)F)c(C#N)c3)ncn2)ccc1N1CCN(C)[C@H](C)C1 (stereo partly drawn) [Example 73, 2-[(3,3-difluoropiperidin-4-yl)oxy]-5-[6-({5-[(3R)-3,4-dimethylpiperazin-1-yl]-6-methoxypyridin-2-yl}amino)pyrimidin-4-yl]benzonitrile] | < 100 nM | < 100 nM
3 | COc1nc(Nc2cc(-c3ccc(OC4CCN(C(=O)[C@H](C)O)CC4(F)F)c(C#N)c3)ncn2)ccc1N1CCN(C)[C@H](C)C1 (stereo partly drawn) [Example 74, 2-([3,3-difluoro-1-[(2S)-2-hydroxypropanoyl]piperidin-4-yl]oxy)-5-[6-([5-[(3R)-3,4-dimethylpiperazin-1-yl]-6-methoxypyridin-2-yl]amino)pyrimidin-4-yl]benzonitrile hydrochloride] | < 100 nM | < 100 nM
4 | COc1nc(Nc2cc(-c3ccc(OC4CCN(C(=O)[C@@H](C)O)CC4(F)F)c(C#N)c3)ncn2)ccc1N1CCN(C)[C@H](C)C1 (stereo partly drawn) [Example 75, 2-([3,3-difluoro-1-[(2R)-2-hydroxypropanoyl]piperidin-4-yl]oxy)-5-[6-([5-[(3R)-3,4-dimethylpiperazin-1-yl]-6-methoxypyridin-2-yl]amino)pyrimidin-4-yl]benzonitrile hydrochloride] | < 100 nM | < 100 nM
5 | COc1nc(Nc2cc(-c3ccc(OC4CCNCC4(F)F)c(C#N)c3)ncn2)ccc1N1CCN(C2COC2)CC1 (stereo not drawn) [Example 76, 2-[(3,3-difluoropiperidin-4-yl)oxy]-5-[6-({6-methoxy-5-[4-(oxetan-3-yl)piperazin-1-yl]pyridin-2-yl}amino)pyrimidin-4-yl]benzonitrile] | < 100 nM | < 100 nM
6 | COc1nc(Nc2cc(-c3ccc(OC4CCN(C(=O)[C@@H](C)O)CC4(F)F)c(C#N)c3)ncn2)ccc1N1CCN(C2COC2)CC1 (stereo partly drawn) [Example 77, 2-([3,3-difluoro-1-[(2R)-2-hydroxypropanoyl]piperidin-4-yl]oxy)-5-[6-([6-methoxy-5-[4-(oxetan-3-yl)piperazin-1-yl]pyridin-2-yl]amino)pyrimidin-4-yl]benzonitrile] | < 100 nM | < 100 nM
7 | COc1nc(Nc2cc(-c3ccc(OC4CCN(C(=O)[C@H](C)O)CC4(F)F)c(C#N)c3)ncn2)ccc1N1CCN(C2COC2)CC1 (stereo partly drawn) [Example 78, 2-([3,3-difluoro-1-[(2S)-2-hydroxypropanoyl]piperidin-4-yl]oxy)-5-[6-([6-methoxy-5-[4-(oxetan-3-yl)piperazin-1-yl]pyridin-2-yl]amino)pyrimidin-4-yl]benzonitrile] | < 100 nM | < 100 nM
8 | COc1nc(Nc2cc(-c3ccc(O[C@H]4CCN(C(=O)c5cnn[nH]5)C[C@H]4F)c(C#N)c3)ncn2)ccc1N1CCN(C2COC2)CC1 [Example 79, 2-[[(3R,4S)-3-fluoro-1-[(1H-1,2,3-triazol-5-yl)carbonyl]piperidin-4-yl]oxy]-5-[6-([6-methoxy-5-[4-(oxetan-3-yl)piperazin-1-yl]pyridin-2-yl]amino)pyrimidin-4-yl]benzonitrile] | < 100 nM | < 100 nM
9 | COc1nc(Nc2cc(-c3ccc(OC4CCNCC4(F)F)c(C#N)c3)ncn2)ccc1N1CCN(C)[C@@H](C)C1 (stereo partly drawn) [Example 80, 2-[(3,3-difluoropiperidin-4-yl)oxy]-5-[6-({5-[(3S)-3,4-dimethylpiperazin-1-yl]-6-methoxypyridin-2-yl}amino)pyrimidin-4-yl]benzonitrile] | < 100 nM | < 100 nM
